One data set concerns U2OS. Kind of data set: Incucyte cell viability with U2OS. The class given is toxicity, cell-based. The settings on record: human, 10 µM, compound concentration 10 uM.
The test system of the next data set is HEK-293T. Kind of data set: Incucyte cell viability with HEK293T. The class given is toxicity, cell-based. The settings on record: human, 10 µM, compound concentration 10 uM.
The mark [1] stands for this setting: 0 h, replicate number 2, timepoint 0 hours.
Setting [2] is: 6 h, replicate number 1, timepoint 6 hours.
Setting [3] is: 12 h, replicate number 1, timepoint 12 hours.
The mark [4] stands for this setting: 18 h, replicate number 1, timepoint 18 hours.
[5] abbreviates: 24 h, replicate number 1, timepoint 24 hours.
[6] abbreviates: 24 h, replicate number 2, timepoint 24 hours.
Where [7] appears, read: 0 h, replicate number 1, timepoint 0 hours.
The mark [8] stands for this setting: 6 h, replicate number 2, timepoint 6 hours.
Where [9] appears, read: 12 h, replicate number 2, timepoint 12 hours.

The structures appear in SMILES notation.

This note sets out measurements from ChEMBL document CHEMBL4689842, “EUbOPEN Chemogenomics Library wave 1” (2021).
Further: filed as whole numbers so only -1 and 0 and 1 occur.

Turning to `C=CC(=O)Nc1ccc2[nH]c(=O)n(C3CCN(Cc4ccc(-c5nc6cc[nH]c(=O)c6cc5-c5ccccc5)cc4)CC3)c2c1` [Borussertib], the “Growth Rate” value in the data set on U2OS (setting [1]) is recorded as 1; in the data set with U2OS (setting [2]), 1; in the data set on U2OS (setting [3]), 1; in the data set with U2OS (setting [4]), 1; with U2OS (setting [5]), 1; in the data set with U2OS (setting [6]), 0. Besides, the “Growth Rate” value with HEK-293T (setting [7]) is 0; with HEK-293T (setting [1]), 1; in the data set with HEK-293T (setting [2]) it was 0; in the data set on HEK-293T (setting [3]), 0; in the data set on HEK-293T (setting [4]) it was 0; with HEK-293T (setting [5]), 0.

Regarding `COc1ccccc1CN[C@H]1C2CCN(CC2)[C@H]1C(c1ccccc1)c1ccccc1` [CP-96345], the “Growth Rate” value turned out to be 0 in the data set on U2OS (setting [7]); 1 with U2OS (setting [8]); 1 in the data set on U2OS (setting [3]); 1 with U2OS (setting [4]); 1 with U2OS (setting [5]); 1 in the data set with HEK-293T (setting [7]). In addition, the “Growth Rate” value in the data set with HEK-293T (setting [1]), in the data set on HEK-293T (setting [2]), in the data set with HEK-293T (setting [3]), in the data set with HEK-293T (setting [4]) and in the data set with HEK-293T (setting [5]) was 0 throughout.

As to `CNC(=O)c1ccc(Nc2ncc(C(F)(F)F)c(NCc3nccnc3N(C)S(C)(=O)=O)n2)cc1` [DEFACTINIB], the “Growth Rate” value with U2OS (setting [7]) was found to be 0; in the data set on U2OS (setting [1]), 1; in the data set with U2OS (setting [2]), 1; in the data set on U2OS (setting [8]), 0; in the data set on U2OS (setting [3]), 0; with U2OS (setting [4]), 0. The “Growth Rate” value in the data set on U2OS (setting [5]) is reported as 0; in the data set on HEK-293T (setting [7]), 1; in the data set on HEK-293T (setting [2]), 0; in the data set with HEK-293T (setting [3]), 0; with HEK-293T (setting [4]) it was 0; with HEK-293T (setting [5]) it was 0.

`CN1CCN(Cc2ccc(Nc3ncc(Cl)c(Nc4ccccc4S(=O)(=O)N(C)C)n3)cc2)CC1` [DUBERMATINIB]: the “Growth Rate” value in the data set on U2OS (setting [7]) amounted to 0; in the data set on U2OS (setting [2]) it was 1; in the data set with U2OS (setting [3]), 0; in the data set on U2OS (setting [4]), 0; in the data set with U2OS (setting [5]), 0; with HEK-293T (setting [7]), 0. Besides, the “Growth Rate” value with HEK-293T (setting [1]) is 1; with HEK-293T (setting [8]), 0; in the data set on HEK-293T (setting [3]), 1; in the data set on HEK-293T (setting [9]), 0; in the data set on HEK-293T (setting [4]) it was 0; with HEK-293T (setting [5]), 0.

In the case of `C#Cc1cccc(Nc2ncnc3cc(OCCOC)c(OCCOC)cc23)c1` [ERLOTINIB], the “Growth Rate” value came to 1 with U2OS (setting [1]); 0 in the data set on U2OS (setting [8]); 1 in the data set with U2OS (setting [3]); 0 in the data set on U2OS (setting [9]); 0 in the data set with U2OS (setting [4]); 1 with U2OS (setting [5]). Besides, the “Growth Rate” value with U2OS (setting [6]), in the data set with HEK-293T (setting [7]), with HEK-293T (setting [2]), with HEK-293T (setting [3]), in the data set on HEK-293T (setting [4]) and in the data set on HEK-293T (setting [5]) was 0 each time.

Regarding `C[C@]12CC[C@@H]3c4ccc(O)cc4CC[C@H]3[C@@H]1CC[C@@H]2O` [ESTRADIOL], the “Growth Rate” value in the data set on U2OS (setting [1]) is given as 0; with U2OS (setting [2]) it was 0; in the data set with U2OS (setting [3]), 0; in the data set on U2OS (setting [4]), 0; in the data set with U2OS (setting [5]) it was 0; in the data set with HEK-293T (setting [7]) it was 1. The “Growth Rate” value in the data set with HEK-293T (setting [1]), with HEK-293T (setting [2]), with HEK-293T (setting [3]), in the data set with HEK-293T (setting [4]) and with HEK-293T (setting [5]) was 0 in each case.

Consider `CC(C)c1noc(N2CCC(COc3ccc(-c4ccc(S(C)(=O)=O)cc4)nc3)CC2)n1` [GSK-1292263], for which the “Growth Rate” value with U2OS (setting [7]) was 0; in the data set with U2OS (setting [9]), 1; in the data set on U2OS (setting [4]) it was 1; in the data set with U2OS (setting [5]) it was 1; in the data set on HEK-293T (setting [1]), 0; with HEK-293T (setting [2]), 0. Besides, the “Growth Rate” value in the data set on HEK-293T (setting [3]), with HEK-293T (setting [4]) and with HEK-293T (setting [5]) was 0 throughout.

As for `COc1cc2ncn(-c3cc(OCc4ccccc4C(F)(F)F)c(C(N)=O)s3)c2cc1OC` [GW843682X], the “Growth Rate” value in the data set on U2OS (setting [1]) is given as 0; with U2OS (setting [3]), 1; in the data set on U2OS (setting [9]), 0; in the data set with U2OS (setting [4]) it was 0; in the data set on U2OS (setting [5]), 0; in the data set on HEK-293T (setting [7]) it was 0. The “Growth Rate” value in the data set with HEK-293T (setting [3]), in the data set on HEK-293T (setting [4]) and with HEK-293T (setting [5]) was 0 each time.

In the case of `Cc1ccc2c(c1)c1c(n2CCc2ccc(C)nc2)CCN(C)C1` [LATREPIRDINE], the “Growth Rate” value in the data set with U2OS (setting [7]) is on record as 0; with U2OS (setting [8]), 0; in the data set on U2OS (setting [3]), 1; in the data set on U2OS (setting [4]) it was 0; with U2OS (setting [5]), 1; in the data set with U2OS (setting [6]), 0. The “Growth Rate” value in the data set with HEK-293T (setting [1]), with HEK-293T (setting [2]), in the data set with HEK-293T (setting [3]), in the data set with HEK-293T (setting [4]) and in the data set with HEK-293T (setting [5]) was 0 throughout.

Regarding `C[C@]1(O)C[C@@H](c2nc(-c3ccc4ccc(-c5ccccc5)nc4c3)c3c(N)nccn32)C1` [LINSITINIB], the “Growth Rate” value with U2OS (setting [7]) is 1; with U2OS (setting [2]) it was 0; in the data set on U2OS (setting [3]), 0; with U2OS (setting [4]), 0; in the data set with U2OS (setting [5]), 0; in the data set with HEK-293T (setting [1]), 1. Also, the “Growth Rate” value in the data set on HEK-293T (setting [2]), with HEK-293T (setting [3]), with HEK-293T (setting [4]) and with HEK-293T (setting [5]) was 0 throughout.

On to `CCc1nn(CCCN2CCN(c3cccc(Cl)c3)CC2)c(=O)n1CCOc1ccccc1.Cl` [NEFAZODONE HYDROCHLORIDE], for which the “Growth Rate” value is 1 in the data set with U2OS (setting [2]); 0 in the data set with U2OS (setting [3]); 1 in the data set with U2OS (setting [4]); 0 in the data set with U2OS (18 h, replicate number 2, timepoint 18 hours); 0 with U2OS (setting [5]); 0 in the data set on HEK-293T (setting [1]). Besides, the “Growth Rate” value in the data set with HEK-293T (setting [2]), with HEK-293T (setting [3]), in the data set on HEK-293T (setting [4]) and in the data set on HEK-293T (setting [5]) was 0 throughout.

On to `COC(=O)C1=C(C)NC(C)=C(C(=O)OCCCN2CCC(c3ccccc3)(c3ccccc3)CC2)[C@H]1c1cccc([N+](=O)[O-])c1` [NIGULDIPINE], for which the “Growth Rate” value in the data set with U2OS (setting [7]), in the data set on U2OS (setting [8]), with U2OS (setting [3]), in the data set on U2OS (setting [4]), in the data set with U2OS (setting [5]) and with HEK-293T (setting [1]) was 0 in each case. In addition, the “Growth Rate” value in the data set on HEK-293T (setting [2]), in the data set with HEK-293T (setting [3]), with HEK-293T (setting [4]) and in the data set on HEK-293T (setting [5]) was 0 each time.

Consider `CC(C)CC(=O)Nc1[nH]nc2c1CN(C(=O)C1CCN(C)CC1)C2(C)C` [PHA-793887], for which the “Growth Rate” value is 1 in the data set with U2OS (setting [7]); 0 in the data set on U2OS (setting [1]); 0 with U2OS (setting [2]); 0 with U2OS (setting [3]); 0 in the data set on U2OS (setting [4]); 0 in the data set on U2OS (setting [5]). For the same molecule, the “Growth Rate” value in the data set with HEK-293T (setting [7]) is 1; in the data set on HEK-293T (setting [2]) it was 0; in the data set with HEK-293T (setting [3]), 0; in the data set on HEK-293T (setting [4]), 0; in the data set on HEK-293T (setting [5]) it was 0.

In the case of `CCCSc1nc(N[C@@H]2C[C@H]2c2ccc(F)c(F)c2)c2nnn([C@@H]3C[C@H](OCCO)[C@@H](O)[C@H]3O)c2n1` [TICAGRELOR], the “Growth Rate” value in the data set on U2OS (setting [7]), in the data set on U2OS (setting [2]), with U2OS (setting [3]), in the data set with U2OS (setting [4]), in the data set with U2OS (setting [5]) and in the data set on HEK-293T (setting [1]) was 0 in each case. In addition, the “Growth Rate” value in the data set with HEK-293T (setting [2]), with HEK-293T (setting [3]), in the data set with HEK-293T (setting [4]) and in the data set on HEK-293T (setting [5]) was 0 throughout.

For the molecule `CC(C)(C)NC[C@H](O)COc1nsnc1N1CCOCC1` [TIMOLOL], the “Growth Rate” value in the data set on U2OS (setting [7]) is listed as 0; in the data set on U2OS (setting [8]), 1; in the data set on U2OS (setting [9]), 1; in the data set on U2OS (setting [4]), 1; with U2OS (setting [5]), 1; in the data set on HEK-293T (setting [7]) it was 0. Moreover, the “Growth Rate” value in the data set on HEK-293T (setting [2]) was determined as 0; in the data set on HEK-293T (setting [3]), 0; with HEK-293T (setting [9]) it was 1; in the data set on HEK-293T (setting [4]) it was 0; in the data set on HEK-293T (setting [5]), 0.
